The assay concerns the target T1, MPO (myeloperoxidase) (Homo sapiens, UniProt P05164).
T1 sequence (P05164 49-745): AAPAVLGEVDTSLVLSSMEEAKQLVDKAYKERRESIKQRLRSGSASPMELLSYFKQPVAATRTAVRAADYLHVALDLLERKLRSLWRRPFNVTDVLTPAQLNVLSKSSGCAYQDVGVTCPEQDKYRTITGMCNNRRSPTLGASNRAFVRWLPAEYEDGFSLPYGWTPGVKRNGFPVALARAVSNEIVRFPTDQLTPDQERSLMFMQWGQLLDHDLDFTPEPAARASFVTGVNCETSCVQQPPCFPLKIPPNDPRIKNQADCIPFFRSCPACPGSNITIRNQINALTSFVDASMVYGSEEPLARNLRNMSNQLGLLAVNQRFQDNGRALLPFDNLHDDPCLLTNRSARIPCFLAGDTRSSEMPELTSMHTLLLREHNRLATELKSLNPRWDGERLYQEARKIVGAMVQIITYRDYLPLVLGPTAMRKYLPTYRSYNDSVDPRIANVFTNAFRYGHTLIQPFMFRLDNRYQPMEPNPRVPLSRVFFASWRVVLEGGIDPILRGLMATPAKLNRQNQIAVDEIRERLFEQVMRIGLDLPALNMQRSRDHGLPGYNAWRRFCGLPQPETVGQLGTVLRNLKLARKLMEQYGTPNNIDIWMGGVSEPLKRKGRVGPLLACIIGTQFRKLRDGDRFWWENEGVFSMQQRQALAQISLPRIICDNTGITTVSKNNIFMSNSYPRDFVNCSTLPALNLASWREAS
Kind of assay: MPO (myeloperoxidase) activity inhibition. It is filed as biochemical. To be noted: MPO purified enzyme, pH 5.4, 25° C. How it is done:
To 2.9 ml of a 50 mM phosphate buffer (pH: 5.4) containing 0.1% hydrogen peroxide and 1.03 mM o-dianisidine, 50 μl of a test solution and 50 μl of a MPO purified enzyme (1.24 units/ml) were added and, after incubating in a cuvet at 25° C., measuring a change in absorbance (λ: 450 nm) was measured for 5 minutes. As a blank, 50 μl of a 50 mM phosphate buffer (pH: 5.4) was used.
As the test solution, a tea extract solution obtained by extracting a green tea with hot water and a solution obtained by measuring the concentration of Mn in the tea extract solution and adding MnCl2 in an APT broth so that the concentration of Mn in the medium may be the same as that of the tea extract solution were used. Then, […]
Therefore, it was examined whether the component contained in the tea other than Mn is connected with the MPO activity inhibition or not. That is, according to the same manner as that described above, the MPO inhibition activity was examined using a purified catechin as the component other than Mn.

With catechin, the “concentration at which the MPO inhibition effect is exhibited” value is no less than 1.5 µg/mL.
